Measurements reported in patent US10112935B2, “Indazolyl thiadiazolamines and related compounds for inhibition of Rho-associated protein kinase and the treatment of disease” (Lycera Corporation, priority 2015, dated 2018).

Experiments:
[1] = target: GST-tagged human ROCK1 catalytic domain 1-477 (Homo sapiens (Human), UniProt Q13464); assay: Inhibition of Rho-associated protein kinase isoform 1 (LANCE Ultra ULight-CREBtide FRET kinase assay); type: biochemical; settings: 30 μM was the highest concentration analyzed
Sequence of GST-tagged human ROCK1 catalytic domain 1-477 (Q13464 1-477): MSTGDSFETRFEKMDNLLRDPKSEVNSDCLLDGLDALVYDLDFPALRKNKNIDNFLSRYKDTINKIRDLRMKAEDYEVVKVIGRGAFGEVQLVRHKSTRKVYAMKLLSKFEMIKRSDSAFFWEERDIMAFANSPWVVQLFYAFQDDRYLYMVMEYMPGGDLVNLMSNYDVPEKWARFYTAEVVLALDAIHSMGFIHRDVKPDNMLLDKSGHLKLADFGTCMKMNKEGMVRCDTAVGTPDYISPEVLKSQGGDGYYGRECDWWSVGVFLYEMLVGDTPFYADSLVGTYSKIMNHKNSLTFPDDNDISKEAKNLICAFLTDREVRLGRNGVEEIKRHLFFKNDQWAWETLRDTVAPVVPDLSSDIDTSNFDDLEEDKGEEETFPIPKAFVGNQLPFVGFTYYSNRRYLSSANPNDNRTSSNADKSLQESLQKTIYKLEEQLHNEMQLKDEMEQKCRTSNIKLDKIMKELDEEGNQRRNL
Description: (§1) Exemplary compounds were tested for ability to inhibit Rho-associated protein kinase isoform 1 (ROCK1) and Rho-associated protein kinase isoform 2 (ROCK2). Assay procedures and results are described below.
(§2) Protein constructs were purified from a baculovirus expression system. The peptide substrate was fluorescent LANCE® Ultra ULight-CREBtide: […] (PerkinElmer, # TRF0107-D). […] After a 90 minute incubation at room temperature on a shaker table, the kinase reaction was stopped by addition of 10 mM EDTA, and phosphorylation of the substrate was detected by adding 1 nM LANCE® Ultra Europium-anti-phospho-CREB (ser133) antibody (PerkinElmer, # TRF0200-D) and incubating for 60 minutes on a shaker at room temperature. The flurorescence resonance energy transfer (FRET) signals were read and analyzed on an Envision™ 2103 Multilabel Reader (Perkin Elmer).

[2] = target: GST-tagged human ROCK2 catalytic domain 1-553 (Homo sapiens (Human), UniProt O75116); assay: Inhibition of Rho-associated protein kinase isoform 2 (LANCE Ultra ULight-CREBtide FRET kinase assay); type: biochemical; settings: for IC50: 30 μM was the highest concentration analyzed; for Selectivity for ROCK2 over ROCK1 (IC50 ROCK1 / IC50 ROCK2): selectivity ROCK2 vs ROCK1
Sequence of GST-tagged human ROCK2 catalytic domain 1-553 (O75116 1-553): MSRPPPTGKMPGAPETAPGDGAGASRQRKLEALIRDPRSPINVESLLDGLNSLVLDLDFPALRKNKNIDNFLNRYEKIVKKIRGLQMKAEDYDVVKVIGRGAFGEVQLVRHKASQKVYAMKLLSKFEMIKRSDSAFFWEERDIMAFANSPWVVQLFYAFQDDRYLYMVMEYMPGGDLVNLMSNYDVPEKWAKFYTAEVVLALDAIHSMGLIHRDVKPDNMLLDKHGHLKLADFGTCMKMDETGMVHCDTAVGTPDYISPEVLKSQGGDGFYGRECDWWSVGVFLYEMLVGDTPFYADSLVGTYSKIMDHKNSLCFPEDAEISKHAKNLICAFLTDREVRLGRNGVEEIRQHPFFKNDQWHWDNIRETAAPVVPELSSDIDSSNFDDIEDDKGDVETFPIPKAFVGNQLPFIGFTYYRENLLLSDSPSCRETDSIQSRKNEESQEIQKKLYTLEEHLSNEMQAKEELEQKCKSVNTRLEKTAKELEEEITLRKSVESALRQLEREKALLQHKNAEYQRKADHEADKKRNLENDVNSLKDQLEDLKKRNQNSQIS
Description: as §1, §2

Row | SMILES | IC50 [1] [µM] | IC50 [2] [µM] | Selectivity for ROCK2 over ROCK1 (IC50 ROCK1 / IC50 ROCK2) [2]
1 | CC1CCCCC1C(=O)Nc1cccc(-c2nnc(Nc3ccc4[nH]ncc4c3Cl)s2)c1 (centres unmarked) [Example 35H] | 1 to 15 | < 1 | >5
2 | CC(=O)Nc1cccc(-c2nnc(Nc3ccc4[nH]ncc4c3C(C)C)s2)c1 [Example 35I] | > 30 | 1 to 15 | >5
3 | CC(=O)Nc1cccc(-c2nnc(Nc3ccc4[nH]ncc4c3C)s2)c1 [Example 35J] | 1 to 15 | < 1 | >5
4 | C=Cc1c(Nc2nnc(-c3cccc(NC(C)=O)c3)s2)ccc2[nH]ncc12.O=C(O)C(F)(F)F [Example 35K] | 1 to 15 | < 1 | >5
5 | CC(C)(C)CC(=O)Nc1cccc(-c2nnc(Nc3ccc4[nH]ncc4c3Cl)s2)c1 [Example 35M] | 1 to 15 | < 1 | >5
6 | CC(C)(C)C(=O)Nc1cccc(-c2nnc(Nc3ccc4[nH]ncc4c3Cl)s2)c1 [Example 35O] | < 1 | < 1 | >5
7 | O=C(Nc1cccc(-c2nnc(Nc3ccc4[nH]ncc4c3Cl)s2)c1)N1CCNCC1 [Example 35T] | < 1 | < 1 | >5
8 | CC(C)C(=O)Nc1cccc(-c2nnc(Nc3ccc4[nH]ncc4c3Cl)s2)c1 [Example 35V] | < 1 | < 1 | >5
9 | CC(=O)Nc1cccc(-c2nnc(Nc3ccc4[nH]ncc4c3Cl)s2)c1 [Example 35Y] | < 1 | < 1 | >5
10 | N#Cc1cccc(-c2nnc(Nc3ccc4[nH]ncc4c3Cl)s2)c1 [Example 35Z] | > 30 | < 1 | >100
11 | Cn1cc(CC(=O)Nc2cc(-c3nnc(Nc4ccc5[nH]ncc5c4Cl)s3)ccn2)cn1 [Example 36, N-(4-(5-((4-Chloro-1H-indazol-5-yl)amino)-1,3,4-thiadiazol-2-yl)pyridin-2-yl)-2-(1-methyl-1H-pyrazol-4-yl)acetamide] | < 1 | < 1 | >5
12 | Clc1c(Nc2nnc(-c3cccc(-c4nccn4C4COC4)c3)s2)ccc2[nH]ncc12 [Example 37, N-(4-Chloro-1H-indazol-5-yl)-5-(3-(1-(oxetan-3-yl)-1H-imidazol-2-yl)phenyl)-1,3,4-thiadiazol-2-amine] | > 30 | < 1 | >100
13 | CN1CCN(c2cc(-c3nnc(Nc4ccc5[nH]ncc5c4Cl)s3)ccn2)C1=O [Example 38, 1-(4-(5-((4-Chloro-1H-indazol-5-yl)amino)-1,3,4-thiadiazol-2-yl)pyridin-2-yl)-3-methylimidazolidin-2-one] | < 1 | < 1 | >5
14 | c1csc(-c2cncc(-c3nnc(Nc4ccc5[nH]ncc5c4)s3)c2)c1 [Example 39D] | 1 to 15 | < 1 | >5
15 | Cc1coc(-c2cc(-c3nnc(Nc4ccc5[nH]ncc5c4Cl)s3)ccn2)n1 [Example 40, N-(4-Chloro-1H-indazol-5-yl)-5-(2-(4-methyloxazol-2-yl)pyridin-4-yl)-1,3,4-thiadiazol-2-amine] | < 1 | < 1 | >5
16 | O=C(O)C(F)(F)F.OCc1cc(-c2ncco2)cc(-c2nnc(Nc3ccc4[nH]ncc4c3Cl)s2)c1 [Example 41C] | < 1 | < 1 | >5
17 | Clc1c(Nc2nnc(-c3cccc(-c4nnn[nH]4)c3)s2)ccc2[nH]ncc12 [Example 41D] | < 1 | < 1 | >50
18 | CN1CCN(c2cccc(-c3nnc(Nc4ccc5[nH]ncc5c4Cl)s3)c2)C(=O)C1 [Example 42, 1-(3-(5-((4-Chloro-1H-indazol-5-yl)amino)-1,3,4-thiadiazol-2-yl)phenyl)-4-methylpiperazin-2-one] | 1 to 15 | 1 to 15 | >5
19 | CN1C(=O)Cc2c(-c3nnc(Nc4ccc5[nH]ncc5c4Cl)s3)cccc21.O=C(O)C(F)(F)F [Example 43, 4-(5-((4-Chloro-1H-indazol-5-yl)amino)-1,3,4-thiadiazol-2-yl)-1-methylindolin-2-one 2,2,2-trifluoroacetic Acid Solvate] | 1 to 15 | < 1 | >5
20 | COCCn1ccnc1-c1cccc(-c2nnc(Nc3ccc4[nH]ncc4c3Cl)s2)c1.O=C(O)C(F)(F)F [Example 44, N-(4-Chloro-1H-indazol-5-yl)-5-(3-(1-(2-methoxyethyl)-1H-imidazol-2-yl)phenyl)-1,3,4-thiadiazol-2-amine 2,2,2-trifluoroacetic Acid Solvate] | < 1 | < 1 | >5

Row | SMILES | IC50 [1] [µM] | IC50 [2] [µM] | Selectivity for ROCK2 over ROCK1 (IC50 ROCK1 / IC50 ROCK2) [2]
21 | O=C(O)C(F)(F)F.OCCn1ccnc1-c1cccc(-c2nnc(Nc3ccc4[nH]ncc4c3Cl)s2)c1 [Example 45A, 2-(2-(3-(5-((4-Chloro-1H-indazol-5-yl)amino)-1,3,4-thiadiazol-2-yl)phenyl)-1H-imidazol-1-yl)ethan-1-ol 2,2,2-trifluoroacetic Acid Solvate] | 1 to 15 | < 1 | >75
22 | CC(C)n1ccnc1-c1cccc(-c2nnc(Nc3ccc4[nH]ncc4c3Cl)s2)c1.O=C(O)C(F)(F)F [Example 46A] | < 1 | < 1 | >5
23 | O=C(O)C(F)(F)F.Oc1cccc(-c2cccc(-c3nnc(Nc4ccc5[nH]ncc5c4Cl)s3)c2)n1 [Example 46B] | > 30 | < 1 | >100
24 | Cc1coc(-c2cccc(-c3nnc(Nc4ccc5[nH]ncc5c4Cl)s3)c2)n1 [Example 46C] | < 1 | < 1 | >5
25 | Cc1coc(-c2cc(F)cc(-c3nnc(Nc4ccc5[nH]ncc5c4Cl)s3)c2)n1 [Example 46D] | > 30 | < 1 | >100
26 | Cn1ccnc1-c1cccc(-c2nnc(Nc3ccc4[nH]ncc4c3Cl)s2)c1.O=C(O)C(F)(F)F [Example 46E] | > 30 | < 1 | >100
27 | CC1(C)COC(c2cccc(-c3nnc(Nc4ccc5[nH]ncc5c4Cl)s3)c2)=N1 [Example 46F] | 1 to 15 | < 1 | >5
28 | COc1cccc(-c2cccc(-c3nnc(Nc4ccc5[nH]ncc5c4Cl)s3)c2)n1 [Example 46H] | > 30 | < 1 | >100
29 | Clc1c(Nc2nnc(-c3cccc(-c4nccs4)c3)s2)ccc2[nH]ncc12 [Example 46I] | > 30 | < 1 | >100
30 | Fc1cc(-c2ncco2)cc(-c2nnc(Nc3ccc4[nH]ncc4c3Cl)s2)c1 [Example 46J] | > 30 | < 1 | >100
31 | NC(=O)c1cc(-c2ncco2)cc(-c2nnc(Nc3ccc4[nH]ncc4c3Cl)s2)c1 [Example 46L] | > 30 | < 1 | >100
32 | CC(=O)Nc1cc(-c2ncco2)cc(-c2nnc(Nc3ccc4[nH]ncc4c3Cl)s2)c1.O=C(O)C(F)(F)F [Example 46M] | > 30 | < 1 | >100
33 | O=C(O)C(F)(F)F.O=C(O)c1cc(-c2ncco2)cc(-c2nnc(Nc3ccc4[nH]ncc4c3Cl)s2)c1 [Example 46N] | < 1 | < 1 | >5
34 | Clc1c(Nc2nnc(-c3cccc(-c4ncco4)c3)s2)ccc2[nH]ncc12 [Example 46O] | > 30 | < 1 | >100
35 | Clc1c(Nc2nnc(-c3cncc(-c4ncco4)c3)s2)ccc2[nH]ncc12 [Example 46P] | > 30 | < 1 | >100
36 | CC(=O)Nc1cc(CSC(C)=O)cc(-c2nnc(Nc3ccc4[nH]ncc4c3Cl)s2)c1 [Example 47, (S)-(3-Acetamido-5-(5-((4-chloro-1H-indazol-5-yl)amino)-1,3,4-thiadiazol-2-yl)benzyl)ethanethioate] | > 30 | < 1 | >100
37 | Cn1cc(C(=O)Nc2cc(C(=O)O)cc(-c3nnc(Nc4ccc5[nH]ncc5c4Cl)s3)c2)cn1 [Example 48AC] | < 1 | < 1 | >5
38 | CC(=O)Nc1cc(C(=O)O)cc(-c2nnc(Nc3ccc4[nH]ncc4c3)s2)c1 [Example 48AE] | < 1 | < 1 | 
39 | CCN(CC)Cc1cc(NC(C)=O)cc(-c2nnc(Nc3ccc4[nH]ncc4c3Cl)s2)c1.O=C(O)C(F)(F)F [Example 48A] | 1 to 15 | < 1 | >5
